Laboratory results as given in patent publication EP4029374A1, “NITROGEN CONTAINING SURFACTANTS FOR AGRICULTURAL USE” (Nouryon Chemicals International B.V., priority 2021, dated 2022).

How the values were obtained:
[1] = Solubility of prior art betaine surfactants in concentrated glyphosate salt compositions; type: physicochemical
From the text: WO2000038523 (Huntsman, US6500784, US6653257, EP1139761) discloses an amphoteric surfactant with the structure RCONH(CH2)n N^+R^12CH2COO- wherein R1 is alkyl or hydroxyl alkyl group with C1 to C4 and n = 2 - 4, and discloses a betaine with the structure R R^12N^+CH2COO- wherein R1 is alkyl or hydroxyl alkyl group with C1 to C4. The amphoterics disclosed there mainly functioned as a co-surfactant to solubilize a ether carboxylate in to concentrated glyphosate systems. In the context of the document, there was no mention of bioefficacy of betaines or other amphoteric surfactants by themselves. […] However, without proper testing of individual surfactant, it is not possible to determine whether the effect seen in the mixture of three surfactants comes from the claimed surfactant or the other two surfactants. Moreover, no actual bioefficacy data and especially no data are provided on the degree of "overall kill" provided in the absence of surfactants and in the presence of surfactants; without such data it is not possible to determine whether or not the claimed alkyl amido betaine was effective in enhancing herbicidal activity of glyphosate under the conditions of the test reported. This patent requires Na ion to be < 0.035% for the glyphosate formulation to be stable. Moreover, it used only IPA-glyphosate as examples. It is only recently known that many soluble surfactants in IPA-glyphosate are not soluble in concentrated K or NH4 glyphosate formulations. […] Since stearyl dimethylamidopropyl betaine itself had poor solubility in concentrated potassium glyphosate system, it is expected that the solubility of stearyl dimethylamidopropyl betaine plus ether carboxylate would be even worst in the concentrated potassium glyphosate system. Therefore, the claimed formulation in claim 1 in the document may not be stable, that is not useful, in a concentrated K glyphosate system.
US 20050170965 also indicates the aqueous glyphosate formulation is stable on storage. However, it is only recently known that many stable surfactants in IPA-glyphosate are not soluble in concentrated K or NH4 glyphosate formulations. Tests indicate that a composition of 360 g ae/l di-ammonium glyphosate could not dissolve 5.4% coco dimethyl betaine and a composition of 480 g ae/l potassium glyphosate could not dissolve 5.4% coco dimethylamidopropyl betaine. Since coco dimethyl betaine and coco dimethylamidopropyl betaine had poor solubility in concentrated potassium and di-ammonium glyphosate systems, it is expected that the claimed formulation in claim 16 of the document may not be stable in concentrated K or NH4 glyphosate systems. […]

wheat = test: Glyphosate formulation trial on wheat (Example 5); type: in vivo; settings: 168 g ae/ha; glyphosate to surfactant ratio 3 : 1; picture taken at 21DAT (FIG. 13)
From the text: Cocoamine-6EO betaine was compared in the same trial with tallowamine-15EO as the positive control and the surfactant-free sample as negative control in glyphosate formulations. Glyphosate to surfactant ratio was 3 : 1.
This can be seen from the picture at FIG. 13, taken at 21DAT.

morning glory; wheat = test: Green house trial of glyphosate formulations, % Control (Example 3); type: in vivo; settings: 930, 465 and 233 g ae/ha; 28 DAT; compared with glyphosate formulation without surfactant; result in words (FIGS. 9-10)
From the text: Glyphosate formulation containing oleylamphopolycarboxy glycinate (Na salt) was compared in a green house trial with glyphosate formulation containing tallowamine-10EO (as positive control) and glyphosate alone in terms of % Control. Three glyphosate rates were used, 930 g ae/ha, 465 gae/ha, and 233 g ae/ha.
The results are plotted in FIGS. 9-10.

[2] = system: morning glory (IPOHE, a broad leaf week) and winter wheat (TRZAW, a narrow leaf grass); test: Greenhouse spray of concentrated glyphosate samples, % control at 28 DAT (Example 2); type: in vivo; settings: glyphosate : surfactant 13:1, 489 and 978 g ae/H, result in words (FIGS. 7-8)
Procedure: Table. 3 Studied glyphosate formulations using various surfactants
The concentrated glyphosate samples were diluted to two glyphosate rates and sprayed in a green house so that the final glyphosate rates of the spray solutions were 489 and 978 g ae/H. Three samples at two rates equals six treatments that were sprayed on each of two species, morning glory (IPOHE, a broad leaf week) and winter wheat (TRZAW, a narrow leaf grass). […]
Higher ratio means lower surfactant concentration. A ratio of 13:1 means the sample, at the same glyphosate concentration, has 4.3 times less surfactant than a sample with a ratio of 3:1.
Sample A (glyphosate with added tallowamine-15EO) served as a positive control. Sample B containing only glyphosate without added surfactant served as a negative control.
FIGS. 7-8 illustrates the % control results at 28 DAT.

Compound: CCCCCCCCCCCCCCCCCC(=O)NCCC[N+](C)(C)CC(=O)[O-] [stearyl dimethylamidopropyl betaine]
- surfactant solubility ([1]; in a composition of 51.3% potassium glyphosate): < 1.8%

Compound: Ethoxylated cocoamine (6EO) betaine [cocoamine-6EO betaine]
- control to wheat (wheat): excellent control

Compound: coco dimethyl betaine
- surfactant solubility ([1]; in a composition of 360 g ae/l di-ammonium glyphosate): < 5.4%

Compound: coco dimethylamidopropyl betaine
- surfactant solubility ([1]; in a composition of 360 g ae/l potassium glyphosate): < 80 g/L
- surfactant solubility ([1]; in a composition of 480 g ae/l potassium glyphosate): < 5.4%

Compound: oleylamphopolycarboxy glycinate (Na salt)
- glyphosate efficacy (morning glory; wheat): enhanced glyphosate efficacy

Compound: tallow diamine trimethyl di-betaine
- glyphosate bioefficacy [2]: enhanced glyphosate bioefficacy even at very low rate

Compound: tallowamine-15EO
- control to wheat (wheat): excellent control
